The results in this text go back to patent EP0714662A1, “ANTIALLERGIC AGENT” (MEIJI MILK PRODUCTS COMPANY LIMITED, priority 1993, dated 1995).

Ends that are not written are not given here.

In assay [1] the test system is basophils artificially sensitized in a passive manner with serum IgEs from patients suffering from rhinallergosis caused by mites. Description: Passive histamine release (inhibition) test with passively sensitized basophils. The format is cell-based, human. Here is the method: To 20 ml of heparinized venous blood, 5 ml of a 4.5% dextran solution were added and the mixture was allowed to stand for 30 to 60 minutes at room temperature. The upper leukocyte layer was extracted and subjected to a repetitive centrifugal operation. The leukocytes were then washed with PBS. To the leuokocytes in a precipitated fraction, 20 ml of a lactate buffer (pH 3.9, 4°C) were added and thoroughly mixed. After cooling the mixture on ice for 2 to 5 minutes, the pH was returned to neutral by adding PBS (25 ml). By this operation, IgEs on basophils were released. The leukocytes were washed well with PBS and suspended in 0.5% human albumin/PBS. 100 µl of cell suspension (approximately 2 x 10⁵ cells/well) were added to a V-bottom 96-well plate. Fifty µl of a pooled serum of patients suffering from rhinallergosis caused by mites were further added, and reaction was allowed to proceed for 1 hour at 37°C. This procedure caused serum IgEs from the patients suffering from rhinallergosis caused by mites to be bound to IgE receptors. Thus, basophils artificially sensitized in a passive manner with serum IgEs from patients suffering from rhinallergosis caused by mites can be obtained (Pruzansky J.J. et al., J. Immunol., 131; 1949-1953, 1983). The plate was centrifuged to remove 100 µl of a supernatant. 100 µl of a 0.5% human albumin/PBS were added to the residue and centrifuged again. The centrifugal operation was repeated twice, and the cells were then washed. 100 µl of a Der p II peptide (55-63) having a predetermined concentration of PBS were combined with 50 µl of an MBE (10 µg/50 µl) or PBS, and allowed to react for 30 minutes at 37°C. The plate was then centrifuged to collect 100 µl of a supernatant. The amount of histamine was determined using a histamine assay kit manufactured by Eiken Kagaku K.K.
Essentially, a histamine release test is performed to determine the amount of histamine released when an antigen solution (an allergen solution) is added to a sample of whole blood (fresh blood) from an allergic patient. […]

Assay [2] has as its system serum IgE from 15 patients suffering from mite rhinallergosis. As to the kind of experiment: Enzyme antibody assay: binding of solid phase Der p II overlapping peptides to patients' serum IgE. Set-up: species or system human. To be noted: serum from each of 15 patients. Here is the method:
The complete primary structure of the amino acid sequence of a Der p II protein was determined after cDNA was isolated therefrom by Chua et al. (Int. Arch. Allergy Appl. Immunol. 91: 118-123, 1990). Based on the amino acid sequence, peptides were synthesized on a solid phase using a multipin system (manufactured by Chiron) and coupling reagents, Fmoc-amino acid and DCC (dicyclohexyl carbodiimide) (Geysen, H.M. et al., Proc. Natl. Acad. Sci. USA. 81:3998-4002, 1984). Sixty-one kinds of peptides were synthesized, the first peptide comprising the first through ninth amino acids of the N-terminal of Der p II, the second peptide comprising the third through eleventh amino acids of the N-terminal, and the third through 61st peptides being prepared in an analogous manner.
The RAST (radio-allergosorbent test, Pharmacia) values as determined using antigens from two mite species, Dermatophagoides pteronyssinus (Der p) and Dermatophagoides farina (D f), were class 4. Each of the above-mentioned 61 synthesized peptides and 100 µl of each patient's serum were placed in a 96-well plate and reacted overnight at room temperature. Synthesized peptides in a solid phase were washed three times to remove the patient's serum using a washing solution of 0.05% Tween 20/0.15 M NaCl/Tris-HCl (pH 7.5). 100 µl of galactosidase-labelled anti-human IgE antibodies (Pharmacia) were diluted to 40-fold using a 1:9 diluted Block-ace (product of Dainippon Seiyaku K.K.). The diluted solution was added to a 96-well plate, each synthesized solid phase peptide was also added, and reaction, was allowed to proceed overnight at room temperature. The synthesized solid phase peptide was washed with the same washing solution five times. Thereafter, to a 96-well black plate (manufactured by Dainippon Seiyaku K.K.), were added 200 µl of a solution of 0.1 mM 4-methylumbelliferyl-β-D-galactopyranoside in 0.1% bovine serum albumin/0.1 M NaCl/1 mM MgCl₂/0.1% sodium azide/10 mM phosphate buffer (pH 7.0). Subsequently, the synthesized solid phase peptide was added and reacted for 2 hours at 37°C. After completion of reaction, 100 µl of a reaction terminating solution (0.1 M glycin/NaOH, pH 10.3) were added to each well, and absorbance was measured using a fluorospectrophotometer for 96-well plates (Manufactured by Flow). This reaction was studied for each of 15 patients.

Assay [3] has as its system pooled patients' serum IgE. As to the kind of experiment: Binding inhibition assay: pooled patients' serum IgE to mite body extract (MBE). The arrangement: species or system human. To be noted: peptide concentration of about 5 µg/ml - 5 mg/ml; pooled serum of 10 patients. Here is the method: A crude mite body extract (MBE) was prepared from a mite, Dermatophagoides pteronyssinus (Der p), by homogenizing Der p mite bodies in 0.15 M NaCl/phosphate buffer (pH 7.3, PBS) using a Teflon homogenizer and centrifugally separating to collect the supernatant. A pooled serum IgE from patients was prepared by blending sera from 10 patients suffering from rhinallergosis caused by mites (RAST values with respect to Dermat ophagoides pteronyssinus: 3 or more). The peptide (Der p II 55-63) was synthesized by a Fmoc method using a peptide synthesizer pssm 8 manufactured by Shimadzu Corporation. The results of the synthesis were confirmed by an amino acid analysis and by an analysis of the primary structure. The MBE was added to each well of a 96-well black plate (Dainippon Seiyaku k.K.) so that the amount of protein contained was 1 µg/well (100 µl). The plate was allowed to stand overnight at 4°C. […] After completion of reaction, 100 µl of a reaction terminating liquid (0.1 M glycin/NaOH, pH 10.3) were added to each well, and absorbance was measured using a fluorospectrophotometer for 96-well plates (Manufactured by Flow). The absorbance in a control which was prepared by adding a PBS solution in place of the peptide was taken as 100%.

KASIDGLEV [synthesized peptide No. 28]: the “suppression of histamine release caused by MBE” value is “could not suppress histamine release” in assay [1] (low peptide concentrations) and “about 90%” in assay [1] (peptide concentration 7.55 mg/ml, MBE 10 µg/50 µl). For the same sequence, the histamine release entry in assay [1] (substance added alone to passively sensitized basophils) is given as “histamine was scarcely released”. Also, in assay [2], the “binding reactions with IgE antibodies” value is given as “exhibited binding reactions with IgE antibodies”. Besides, the “inhibition of binding of pooled patients' serum IgE to MBE” value in assay [3] stood at 20%.
